Test results as given in ChEMBL document CHEMBL4622948, “SAR of non-hydrolysable analogs of pyridoxal 5'-phosphate against low molecular weight protein tyrosine phosphatase isoforms” (Bioorg Med Chem Lett, 2020).

Key:
[1] = target: T1, Low molecular weight phosphotyrosine protein phosphatase (Homo sapiens) (UniProt P24666); assay: Inhibition of LMW-PTP isoform A (unknown origin)
T1 sequence (whole entry): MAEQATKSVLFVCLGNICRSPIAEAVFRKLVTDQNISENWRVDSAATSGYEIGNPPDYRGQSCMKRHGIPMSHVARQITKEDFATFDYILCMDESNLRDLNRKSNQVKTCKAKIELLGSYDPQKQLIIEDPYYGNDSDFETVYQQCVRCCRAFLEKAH

[2] = target: T1, Low molecular weight phosphotyrosine protein phosphatase (Homo sapiens); assay: Inhibition of LMW-PTP isoform B (unknown origin)
[3] = organism: Homo sapiens; assay: Selectivity index, ratio of Ki for LMW-PTP isoform B (unknown origin) to Ki for LMW-PTP isoform A (unknown origin)
[4] = Competitive inhibition of bovine LMW-PTP isoform B using para-Nitrophenyl phosphate as substrate at pH 5 by Lineweaver-Burk double reciprocal plot analysis; set-up: species or system Bos taurus
[5] = target: T2, Low molecular weight phosphotyrosine protein phosphatase (Homo sapiens, UniProt P24666); assay: Competitive inhibition of LMW-PTP isoform A (unknown origin)
T2 sequence (P24666 whole entry): T1 sequence (whole entry)

Row | SMILES | Kis [1] [µM] | Kis [2] [µM] | Ratio [3] | Ki [4] [µM] | Ki [5] [µM]
1 | Cc1ncc(/C=C/P(=O)(O)O)c(CO)c1O | 16.3 | 6060 | 372 |  | 
2 | Cc1ccc(/C=C/P(=O)(O)O)cc1O | 50.3 | 42.4 | 0.8 |  | 
3 | O=P(O)(O)/C=C/c1ccccc1 | 482 | > 10000 | > 21 |  | 
4 | Cc1ccc(/C=C/P(=O)(O)O)cn1 | 213 | 842 | 4 |  | 
5 | Cc1ccc(/C=C/P(=O)(O)O)cc1 | 66.8 | 323 | 4.8 |  | 
6 | O=P(O)(O)/C=C/c1cccc(O)c1 | 15.7 | 580 | 37 |  | 
7 | Cc1ncc(CCP(=O)(O)O)c(CO)c1O | 10.4 | 552 | 53 |  | 
8 | Cc1ncc(CCP(=O)(O)O)c(C=O)c1O | 74.9 | 218 | 2.9 |  | 
9 | O=P(O)(O)CCc1cccc(O)c1 | 13 | 52.2 | 4 |  | 
10 | Cc1ccc(CCP(=O)(O)O)cn1 | 1.84 | 15.6 | 8.5 |  | 
11 | Cc1ncc(COP(=O)(O)O)c(C=O)c1O [PYRIDOXAL PHOSPHATE ANHYDROUS] |  |  |  | 7.6 | 13
12 | O=P(O)(O)/C=C/c1cccnc1 | 243 | 1070 | 4.4 |  | 
13 | O=P(O)(O)CCc1ccccc1 | 552 | > 10000 | > 18 |  | 
14 | O=P(O)(O)CCc1cccnc1 | 103 | 1080 | 10.4 |  | 
15 | O=P(O)(O)C(F)(F)Cc1ccccc1 | 359 | > 10000 | > 28 |  | 
16 | Cc1ncc(/C=C/P(=O)(O)O)c(C=O)c1O | 5.14 | 113 | 22 |  | 
17 | Cc1ccc(CCP(=O)(O)O)cc1 | 130 | 323 | 2.5 |  | 
18 | Cc1ccc(CCP(=O)(O)O)cc1O | 3.59 | 39.9 | 11 |  | 
